What was measured:
JY cells = experiment: Penetratin uptake and endo-lysosomal escape, time-correlated flow cytometry; format: cell-based, human; conditions: 50 μM fatty acid 48 h, 5 μM AFDye532- and 5 μM NF-penetratin, 37°C, compared at 900 s, n = 5
From the text: (§1) Penetratin ([…]-amide, molecular weight 2245.75 g/mol) was synthesized manually on TentaGel R RAM (Rapp Polymere, Tübingen, Germany), a low crosslinked polystyrene PEG copolymer resin by the solid-phase method of Merrifield with standard Fmoc chemistry, as described in detail in our recent study ([Batta et al., 2020]). After coupling the last arginine, one half of the penetratin was reacted with AFDye532 N-hydroxysuccinimide ester (molecular weight 723.77 g/mol, Fluoroprobes, Scottsdale, AZ, United States), while the other half with 5(6)-carboxynaphthofluorescein N-succinimidyl ester (molecular weight 573.51 g/mol, Darmstadt, Germany). Completion of the coupling was assessed by Kaiser test, which was followed by deprotection and release from the resin. After filtration and precipitation with cold diethyl ether, the crude products were purified by preparative reversed-phase HPLC (JASCO, Victoria, BC, Canada) on a C18 column and lyophilized. The purity of the products (>95%) was assessed by reversed-phase HPLC (JASCO) equipped with an analytical C18 column. […] These values well correlated with the predicted masses of the labeled peptides (2983.59 and 2833.33, respectively).
(§2) Total cellular penetratin uptake and endo-lysosomal escape was determined as described previously ([Batta et al., 2020]). Briefly, control THP-1 or JY cells and those treated with 50 μM ALA, GLA or SA for 48 h at 37°C were incubated in the continuous presence of 5 μM AFDye532-penetratin, 5 μM NF-penetratin and 0.25 μg/ml DAPI at 37°C in the thermostated sample holder of a FACS Aria III flow cytometer. The fluorescence intensity of DAPI was measured using an excitation at 405 nm and an emission filter 450/20 nm. AFDye532 and NF were excited at 488 and 561 nm, respectively, and their fluorescence was determined using emission filters 530/30 and 670/14 nm, respectively. Measurements started immediately after addition of DAPI and penetratin and continued for 20 min at 37°C. Experimental data were analyzed first in FCS Express. Time-correlated fluorescence intensity values of DAPI-negative living cells were exported after spectral compensation and the moving averages of samples were calculated with a window size of 10 s. […] During analysis, fluorescence intensity values were first normalized to the average intensity in the first time window, which was followed by calculation of the fluorescence ratio from the normalized values.

THP-1 cells = experiment: as above; format: cell-based, human; conditions: 50 μM fatty acid 48 h, 5 μM AFDye532- and 5 μM NF-penetratin, 37°C, compared at 900 s, n = 5
From the text: as §1, §2

| Structure (SMILES) | ratio of NF and AFDye532 intensities (endo-lysosomal escape of penetratin) vs controls (JY cells) | ratio of NF and AFDye532 intensities (endo-lysosomal escape of penetratin) vs controls (THP-1 cells) |
| --- | --- | --- |
| CCCCC/C=C\C/C=C\C/C=C\CCCCC(=O)O [GLA, γ-linolenic acid] | no significant changes | no significant changes |
| CC/C=C\C/C=C\C/C=C\CCCCCCCC(=O)O [ALA, α-linolenic acid] | significantly increased | significantly increased |
